According to patent US20210338652A1, “COMPOSITION AND USE FOR THE TREATMENT OF PARKINSON'S DISEASE AND RELATED DISORDERS” (CHASE THERAPEUTICS CORPORATION, priority 2018, published 2021):
Where two headings read alike, the source gives them in different places.

Legend:
[1] = in vivo; cited from earlier work
humans = settings: for Maximal Tolerated Dose (MTD): oral pramipexole escalation to max 6 mg, ondansetron 8 mg or aprepitant 80 mg where combined
Method: The ability of a 5HT3-antagonist and of a NK1-antagonist for preventing the adverse effects of a DA-agonist in humans was tested.
To be enrolled in the study, participants the following inclusion/exclusion key criteria:
• 1. Male and female subjects aged 20-45 years old both ages included. • 2. Females of childbearing potential must agree to be abstinent or else use any two of the following medically acceptable forms of contraception from the Screening Period through 14 days after the study Exit Visit: condom with spermicidal jelly, diaphragm or cervical cap with spermicidal jelly, or intrauterine device (IUD). […] Subjects must agree to practice the above birth control methods for 14 days after the final visit as a safety precaution. • 3. […] The reason must be documented in the source documents. • 4. […] Males with female partners of childbearing potential who themselves are surgically sterile (status post vasectomy) must agree to use condoms with spermicide over the same period of time. Male subjects must agree to practice the above birth control methods for 14 days after the final visit as a safety precaution. • 5. Subjects must be in good health as determined by their medical history including personal and family psychiatric history and results of physical examination, electrocardiogram (ECG), vital signs, and laboratory tests. A subject with a medical abnormality may be included only if the investigator or designee considers that the abnormality will not introduce significant additional risk to the subject's health or interfere with study objectives. • 6. Subjects must be able to clearly and reliably communicate changes in their medical condition. • 7. Subjects with a body mass index (BMI) between 19.0 and 32.0 kg/m^2 (both inclusive). • 8. Subjects able to swallow multiple pills or capsules simultaneously. • 9.
The criteria for exclusion of a subject from enrollment in the study were as follows: • 1. Any clinically relevant acute or chronic diseases, which could interfere with the subjects' safety during the trial, expose them to undue risk, or interfere with the study objectives. • 2. History or presence of gastrointestinal, hepatic, or renal disease or other condition known to interfere with the absorption, distribution, metabolism or excretion of the study drugs. • 3. History of substance abuse, known drug addiction, or positive test for drugs of abuse or alcohol. • 4. History of drug or other significant allergy. • 5. […] History of and/or current QT interval prolongation, congenital long QT syndrome, electrolyte abnormalities (e.g., hypokalemia or hypomagnesemia), congestive heart failure, bradyarrhythmias or other medicinal products that lead to QT prolongation or 1st degree AV block at Screening, Day−1, or pre-dose, ≥450 QTcF for males and ≥470 QTcF for females. • 7. […] Tobacco or nicotine users (except subjects who stopped using tobacco or nicotine 1 year or more before enrollment in the study). • 9. Excessive daily consumption of xanthines containing drinks (i.e. >500 mg/day of caffeine). • 10. Subjects unwilling to curtail prolonged intensive physical exercise during the study conduct (from the Screening visit until the last dose of study drug). • 11. […] Positive test result for HIV 1 or 2 serology. • 13. Likely to need any medical or dental treatment during the study period. • 14. […] Show evidence of suicidal ideation within the last 6 months as assessed by the C-SSRS (Columbia Suicide Severity Rating Scale) at Screening. […]

| Compound | plasma half-life [1] | dose limiting toxicity (humans; both, human, in vivo) | Maximal Tolerated Dose (MTD) (humans; subject 1001) | Maximal Tolerated Dose (MTD) (humans; subject 1006) | Maximal Tolerated Dose (MTD) (humans; subject 1007) | Maximal Tolerated Dose (MTD) (humans; subject 1008) |
| --- | --- | --- | --- | --- | --- | --- |
| C=CCN1C[C@H](C(=O)N(CCCN(C)C)C(=O)NCC)C[C@@H]2c3cccc4[nH]cc(c34)C[C@H]21 [cabergoline, (6aR,9R,10aR)—N-[3-(dimethylamino)propyl]-N-(ethylcarbamoyl)-7-prop-2-enyl-6,6a,8,9,10,10a-hexahydro-4H-indolo[4,3-fg]quinoline-9-carboxamide] | about 65 hours |  |  |  |  |  |
| CCCN[C@H]1CCc2nc(N)sc2C1 [Pramipexole, (S)-6-propylamino-4,5,6,7-tetrahydro-1,3-benzothiazole-2-amine] |  | gastro-intestinal adverse event in all 4 subjects | 2.0 mg | <0.5 mg | 4.0 mg | 1.0 mg |
